# Counter-ions that a name gives are not always drawn.
# Target: human TRPV1 (Homo sapiens (Human), UniProt Q8NER1)
# Conditions: read-out: IC50 (μM), antagonist effect against human TRPV1; CHO cells expressing human TrpV1; stimulated with 2.5 μM NADA (EC80); mean of at least three independent experiments
# Procedure: Chinese Hamster Ovary (CHO) cells transfected to express human TrpV1 receptor (which are herein referred to as CHO-huTrpV1 cells), were grown in F-12 Ham's Nutrient Mixture media (HyClone SH30026.01) supplemented with 10% Fetal Bovine Serum (Invitrogen #26140-079), 1% Antibiotic/antimycotic (Invitrogen #15240-062) and 500 ug/mL geneticin (ThermoFisher scientific #1031035). Cells were grown in T-75 flasks at 37° C. incubator with 5% CO2. The cells were passaged twice a week at a ratio of 1:10 to 1:20 to maintain steady growth. For experimentation, cells were harvested at approximately 80% confluency and plated onto 384 well black cell culture plates (cat #781091, Greinier Bio-One Inc.) at 15,000 cells per well in 20 μl media and grown overnight.
# The loading dye was prepared following instruction of Calcium 6 assay kit (Molecular Probes, #R8190): 10 ml buffer from bottle B was added to 1 vial of bottle A (adapted to room temperature from −20° C.) and mixed well, then 2.5 mM of fresh prepared probenecid, was added and mixed well. 20 μl/well of loading dye was added on top of the cells, and incubated at 37° C. for 1 hour 30 min.
# Assay buffer preparation: 1×HBSS, 2 mM HEPES, 0.1% BSA plus 2.5 mM freshly prepared probenecid (Invitrogen, #P36400). 25 μl/well assay buffer in 384 well clear plate (cat #782281, Greiner Bio-one) was dispensed with buffer distributor (Multidrop ComB1 from Thermo Scientific). The compounds were in 384 Echo plate (cat #LPL0200, Labcyte) and the starting concentration of compound was 10 mM, then 1 to 3 serial dilution in 100% DMSO, 8 ul/well). 125 nl compounds was transferred to the 384 well plate containing 25 μl/well buffer with Echo® 555 Liquid Handler (Labcyte), such that the compound concentration was 5 fold of final concentration. The plate was shook slowly at 40 rpm/min for 10 min to mix. 10 μl of 5 fold compound in the buffer was transferred to the cell plate (containing 20 μl cells and 20 μl dye) using Vertical Pipetting Station 384ST (Agilent Technologies). Six fold of final concentration of NADA (N-arachidonyl dopamine, cat #A8848, Sigma) in the assay buffer was prepared and 30 μl/well was distributed in 384 well clear plate.
# After compounds were added to the cell plate with loading dye, within 10-15 minutes, cell plate and plate containing NADA was placed into the FLIPR (Fluorescent Imaging Plate Reader) instrument (Tetra System, Molecular device). The TRPV1 receptor was stimulated by application of 10 μl per well of NADA. For testing the effect of compounds for possible antagonism, 2.5 μM NADA was used at the EC80 concentration.
# For determination of antagonist IC50 values (concentration of antagonist that inhibits response to NADA by 50%), at least 10 antagonist concentration were measured in triplicate. The response in the presence of the antagonist was calculated as a percentage of the control response to NADA and was plotted against the concentration of the antagonist. The IC50 was estimated by non-linear regression analysis to sigmoidal-logistic curves by HELIOS (PROD 2) system. These values were averaged (means and standard error of the mean) for at least three independent experiments.
# Chain of human TRPV1 (Q8NER1 whole entry): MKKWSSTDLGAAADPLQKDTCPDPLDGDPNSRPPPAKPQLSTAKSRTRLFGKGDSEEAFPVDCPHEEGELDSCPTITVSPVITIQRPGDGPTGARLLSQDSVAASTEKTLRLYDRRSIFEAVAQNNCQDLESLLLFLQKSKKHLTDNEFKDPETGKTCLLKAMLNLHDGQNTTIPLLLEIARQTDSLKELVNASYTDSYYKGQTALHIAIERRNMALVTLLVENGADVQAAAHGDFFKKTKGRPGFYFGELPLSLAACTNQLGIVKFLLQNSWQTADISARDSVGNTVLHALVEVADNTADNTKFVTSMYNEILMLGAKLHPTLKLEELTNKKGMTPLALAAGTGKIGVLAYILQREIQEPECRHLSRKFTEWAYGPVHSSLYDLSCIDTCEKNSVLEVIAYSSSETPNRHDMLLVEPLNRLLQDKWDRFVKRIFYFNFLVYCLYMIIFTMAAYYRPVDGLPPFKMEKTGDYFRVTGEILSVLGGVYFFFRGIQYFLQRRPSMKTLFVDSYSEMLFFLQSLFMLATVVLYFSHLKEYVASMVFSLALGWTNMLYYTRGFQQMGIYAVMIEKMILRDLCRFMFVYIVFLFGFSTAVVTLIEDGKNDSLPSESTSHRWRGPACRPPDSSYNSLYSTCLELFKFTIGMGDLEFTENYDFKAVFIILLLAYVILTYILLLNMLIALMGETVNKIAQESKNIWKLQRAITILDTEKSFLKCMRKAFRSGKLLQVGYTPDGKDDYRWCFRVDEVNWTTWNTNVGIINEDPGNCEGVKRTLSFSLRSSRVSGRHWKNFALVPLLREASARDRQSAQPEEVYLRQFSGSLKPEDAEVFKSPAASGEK
row,Compound,IC50 [µM]
1,"OCc1cc(F)c(CN[C@H]2C[C@H](Oc3ccnc(C(F)(F)F)c3)C2)c2ccncc12 [Example 90, (6-fluoro-5-((((1r,3r)-3-((2-(trifluoromethyl)pyridin-4-yl)oxy)cyclobutyl)amino)methyl)isoquinolin-8-yl)methanol]",0.874
2,"CN(C)c1ccc2cnccc2c1CN[C@H]1C[C@H](Oc2ccc(F)c(C(F)(F)F)c2)C1 [Example 81, 5-((((1r,3r)-3-(4-fluoro-3-(trifluoromethyl)phenoxy)cyclobutyl)amino)methyl)-N,N-dimethylisoquinolin-6-amine, HCl]",0.255
3,"Cc1ccc(CN[C@H]2C[C@H](Oc3ccc(F)c(C(F)(F)F)c3)C2)c2ccncc12 [Example 24, (1r,3r)-3-(4-fluoro-3-(trifluoromethyl)phenoxy)-N-((8-methylisoquinolin-5-yl)methyl)cyclobutan-1-amine, HCl]",0.906
4,"Nc1cc2c(CC(=O)N[C@H]3C[C@H](Oc4ccc(F)c(C(F)(F)F)c4)C3)c(F)ccc2cn1 [Example 69, 2-(3-amino-6-fluoroisoquinolin-5-yl)-N-((1r,3r)-3-(4-fluoro-3-(trifluoromethyl)phenoxy)cyclobutyl)acetamide]",0.00015
5,"Fc1ccc2cnccc2c1CN[C@H]1C[C@H](Oc2ccnc(C(F)F)c2)C1 [Example 111, (1r,3r)-3-((2-(difluoromethyl)pyridin-4-yl)oxy)-N-((6-fluoroisoquinolin-5-yl)methyl)cyclobutan-1-amine]",1.65
6,"Fc1ccc(O[C@H]2C[C@H](NCc3c(F)ccc4cnccc34)C2)c(F)n1 [Example 55, (1r,3r)-3-((2,6-difluoropyridin-3-yl)oxy)-N-((6-fluoroisoquinolin-5-yl)methyl)cyclobutan-1-amine]",0.352
7,"Nc1cc2c(CN[C@H]3C[C@H](Oc4ccc(F)cc4F)C3)c(F)cc(CO)c2cn1 [Example 19, (3-amino-5-((((1r,3r)-3-(2,4-difluorophenoxy)cyclobutyl)amino)methyl)-6-fluoroisoquinolin-8-yl)methanol, HCl]",0.0162
8,"Nc1cc2c(CN[C@H]3C[C@H](Oc4ccc(F)c(C(F)(F)F)c4)C3)c(F)ccc2cn1 [Example 14, 6-fluoro-5-((((1r,3r)-3-(4-fluoro-3-(trifluoromethyl)phenoxy)cyclobutyl)amino)methyl)isoquinolin-3-amine, HCl]",0.00404
9,"OC[C@H](O)c1cc(F)c(CN[C@H]2C[C@H](Oc3ccc(F)c(C(F)(F)F)c3)C2)c2ccncc12 (single isomer, unassigned; peak 2) [Example 7 peak 2]",0.0063
10,"OCc1cc(F)c(CN[C@H]2C[C@H](Oc3ccc(F)c(C(F)(F)F)c3)C2)c2ccncc12 [Example 6, (6-fluoro-5-((((1r,3r)-3-(4-fluoro-3-(trifluoromethyl)phenoxy)cyclobutyl)amino)methyl)isoquinolin-8-yl)methanol, HCl]",0.00725
11,"N#Cc1ccc(O[C@H]2C[C@H](NCc3c(F)ccc4cnccc34)C2)c(F)n1 [Example 75, 6-fluoro-5-((1r,3r)-3-(((6-fluoroisoquinolin-5-yl)methyl)amino)cyclobutoxy)picolinonitrile, HCl]",0.269
12,"Fc1cc(O[C@H]2C[C@H](NCc3c(F)ccc4cnccc34)C2)ccc1OC(F)F [Example 51, (1r,3r)-3-(4-(difluoromethoxy)-3-fluorophenoxy)-N-((6-fluoroisoquinolin-5-yl)methyl)cyclobutan-1-amine]",0.117
13,"Fc1ccc2cnccc2c1CN[C@H]1C[C@H](Oc2ccc(C(F)(F)F)nc2)C1 [Example 94, (1r,3r)-N-((6-fluoroisoquinolin-5-yl)methyl)-3-((6-(trifluoromethyl)pyridin-3-yl)oxy)cyclobutan-1-amine, HCl]",0.193
14,"Fc1cc(CO[C@H]2C[C@H](NCc3c(F)ccc4cnccc34)C2)ccc1C(F)(F)F [Example 64, (1r,3r)-3-((3-fluoro-4-(trifluoromethyl)benzyl)oxy)-N-((6-fluoroisoquinolin-5-yl)methyl)cyclobutan-1-amine]",0.163
